Measured values taken from patent US11723890B2, “Methods of treatment using an mTORC1 modulator” (Navitor Pharmaceuticals, Inc., priority 2019, dated 2023).
Marks after values point to notes of the source that are not given here.

Legend:
cynomolgus monkey = assay: Single oral dose toxicology study in cynomolgus monkey; type: in vivo
Procedure: Nonclinical toxicology studies have been performed with compound A in the rat and cynomolgus monkey. Adverse effects were not observed after single oral doses of up to 500 mg/kg in rat and up to 2000 mg/kg in cynomolgus monkey.

[1] = test system: rodent models of stress-induced depressive behavior; assay: Preclinical rodent models of stress-induced depressive behavior; type: in vivo; settings: head-to-head with ketamine
Description: Compound A [(S)-2-amino-5,5-difluoro-4,4-dimethylpentanoic acid] is a novel, orally bioavailable, specific, small molecule that activates mTORC1 pathway signaling in the brain, including those centers responsible for mood.

[2] = Example 1 Part A: single ascending dose plasma pharmacokinetics; type: in vivo, human
Procedure: The in-house period was 6 days/5 nights.
Frequent PK sampling was included in the study to evaluate single-dose PK. Part B of the study included assessments designed to assess preliminary efficacy.
Single ascending doses of compound A were assessed in healthy adult males and females in Part A of a two-part, randomized, double-blind, placebo-controlled, first-in-humans Study (see Example 1, Part A).

[3] = test system: CSF neurotransmitter metabolites; assay: Example 2: CSF neurotransmitter metabolomics after a single dose; type: in vivo, human; settings: healthy males; for 1-methyl-4-imidazoleacetate, CSF, ratio relative to baseline / Carboxyethyl-GABA, CSF, ratio relative to baseline / Homovanillate (HVA), CSF, ratio relative to baseline / Hydroxyindoleacetic acid (HIAA), CSF, ratio relative to baseline: single 2400 mg, n = 12
Description: Exploratory Objective(s): The exploratory objectives of this study were as follows using CSF and plasma samples collected over the same time frame as the PK samples: • conducted unbiased metabolomic analysis using validated methods as described: https://www.metabolon.com/what-we-do/our-technology. • conducted unbiased proteomic analysis using validated methods as described: https://www.biognosys.com/technology. Study Endpoints:
This study was a Phase 1, double-blind, placebo-controlled, single-dose study to evaluate the PK, metabolomic, and proteomic profiles of compound A in plasma and CSF in healthy male subjects between the ages of 18 and 55 years. […] Once eligibility criteria were met and the ICF had been signed, subjects were admitted to the CRU on Day-1. On Day 1, intradural and venous catheters were inserted and subjects were randomly assigned to double-blind treatment with a single oral 2400 mg dose of compound A or placebo. The catheter insertion site was assessed on regular basis for early signs of local infection or CSF leakage. Time-matched CSF and blood samples were then collected for 36 hours, after which, the intradural and venous catheters were removed. See FIG. 7 for the study flow chart.
Pharmacokinetic, Metabolomic, and Proteomic Variables: Blood and CSF samples for the PK, metabolomics, and proteomic analysis of compound A were collected at various time points and were processed and analyzed by a validated method for determining concentrations of compound A.
Low CSF concentrations of HVA have been reported to be a marker of depressive symptoms. […] Values represent the ratio of metabolite concentrations for each time point relative to baseline. An increase from baseline is indicated with a single asterisk (*).

[4] = test system: qEEG and event-related potential (ERP); assay: Example 3: qEEG and event-related potential pharmacodynamics; type: in vivo, human; settings: healthy males
Description: Pharmacodynamic Endpoints: The primary pharmacodynamic endpoint was the change from baseline in the difference between the compound A group and the placebo group on qEEG parameters, including:
Fractal and oscillatory EEG band amplitudes
Fractal and oscillatory EEG band intra- and interhemispheric coherences
The secondary pharmacodynamic endpoints were the changes from baseline in the difference between the compound A group and the placebo group in ERP parameters, including: • Mismatch negativity (MMN) amplitude and latency • P300a amplitude and latency • P300b amplitude and latency • N100 amplitude and latency • N200 amplitude and latency • P200 amplitude and latency • Auditory steady-state response (ASSR) peak-to-peak amplitude • ASSR event-related spectral perturbation (ERSP) • ASSR inter-trial phase coherence (ITPC) • Mean time scores of qEEG parallel factor analysis (PARAFAC) atoms endpoints
Pharmacodynamics were assessed via qEEG and event-related potential (ERP). Frequent PK sampling was included in the study to evaluate the PK of two doses of compound A given approximately 48 hours apart. A PK/PD model was developed that measures qEEG and ERP changes as a function of plasma concentration of compound A as well as determines whether there are any PK/PD differences between Dose 1 and Dose 2 effects.

[5] = 2400 mg, not evident in placebo group

Which “single oral dose up to which adverse effects were not observed” value (cynomolgus monkey) does the source give for `CC(C)(C[C@H](N)C(=O)O)C(F)F` [Compound A, (S)-2-amino-5,5-difluoro-4,4-dimethylpentanoic acid] here?
The value was “up to 2000 mg/kg”.

And the “adverse effects in rodent models” value [1]?
The value was “without producing significant adverse effects”.

What about the antidepressant effects [1] of the same compound?
Its antidepressant effects is “rapid antidepressant effects comparable to those of ketamine”.

And the “CL/F and Vz/F estimates versus dose” value ([2]; 150 mg to 2400 mg)?
The value was “increased with dose”.

And the “dose proportionality of Cmax and AUC∞” value ([2]; 150 mg to 2400 mg)?
The value was “slightly less than dose-proportional”.

And the Tmax ([2]; both sexes, human, healthy volunteers, single oral 150-2400 mg, range among cohorts, post dose, read-out: Median Tmax)?
Its Tmax is 0.5 to 1.5 h.

What about the half-life ([2]; both sexes, human, healthy volunteers, single oral 150-2400 mg, range among cohorts, read-out: terminal elimination half-life) of the same compound?
The half-life was 12.7 to 15.9 h.

What about the “onset of effect on key neurotransmitter turnover (GABA, histamine, serotonin, dopamine)” value ([3]; CSF, single oral 2400 mg) of the same compound?
Its value is “within two hours of treatment”.

What about the “duration of effect on key neurotransmitter turnover” value ([3]; CSF, single oral 2400 mg, post-dose) of the same compound?
Its value is 36 h.

And the “1-methyl-4-imidazoleacetate, CSF, ratio relative to baseline” value ([3]; 1 h post-dose)?
The value was 1.08.

And the “Carboxyethyl-GABA, CSF, ratio relative to baseline” value ([3]; 1 h post-dose)?
The value was 1.12.

What about the “Homovanillate (HVA), CSF, ratio relative to baseline” value ([3]; 1 h post-dose) of the same compound?
The value was 1.08.

What about the “Hydroxyindoleacetic acid (HIAA), CSF, ratio relative to baseline” value ([3]; 1 h post-dose) of the same compound?
Its value is 1.09.

What about the “1-methyl-4-imidazoleacetate, CSF, ratio relative to baseline” value ([3]; 2 h post-dose) of the same compound?
The value was 1.35*.

What about the “Carboxyethyl-GABA, CSF, ratio relative to baseline” value ([3]; 2 h post-dose) of the same compound?
Its value is 1.29*.

And the “Homovanillate (HVA), CSF, ratio relative to baseline” value ([3]; 2 h post-dose)?
The value was 1.41*.

What about the “Hydroxyindoleacetic acid (HIAA), CSF, ratio relative to baseline” value ([3]; 2 h post-dose) of the same compound?
Its value is 1.28*.

And the “1-methyl-4-imidazoleacetate, CSF, ratio relative to baseline” value ([3]; 4 h post-dose)?
Its value is 1.52*.

What about the “Carboxyethyl-GABA, CSF, ratio relative to baseline” value ([3]; 4 h post-dose) of the same compound?
Its value is 1.38*.

What about the “Homovanillate (HVA), CSF, ratio relative to baseline” value ([3]; 4 h post-dose) of the same compound?
The value was 1.56*.

And the “Hydroxyindoleacetic acid (HIAA), CSF, ratio relative to baseline” value ([3]; 4 h post-dose)?
Its value is 1.1*.

What about the “1-methyl-4-imidazoleacetate, CSF, ratio relative to baseline” value ([3]; 8 h post-dose) of the same compound?
The value was 1.47*.

What about the “Carboxyethyl-GABA, CSF, ratio relative to baseline” value ([3]; 8 h post-dose) of the same compound?
The value was 1.38*.

What about the “Homovanillate (HVA), CSF, ratio relative to baseline” value ([3]; 8 h post-dose) of the same compound?
Its value is 1.3*.

And the “Hydroxyindoleacetic acid (HIAA), CSF, ratio relative to baseline” value ([3]; 8 h post-dose)?
Its value is 1.22.

What about the “1-methyl-4-imidazoleacetate, CSF, ratio relative to baseline” value ([3]; 12 h post-dose) of the same compound?
The value was 1.56*.

And the “Carboxyethyl-GABA, CSF, ratio relative to baseline” value ([3]; 12 h post-dose)?
Its value is 1.4*.

And the “Homovanillate (HVA), CSF, ratio relative to baseline” value ([3]; 12 h post-dose)?
Its value is 1.46*.

And the “Hydroxyindoleacetic acid (HIAA), CSF, ratio relative to baseline” value ([3]; 12 h post-dose)?
Its value is 1.21.

And the “1-methyl-4-imidazoleacetate, CSF, ratio relative to baseline” value ([3]; 24 h post-dose)?
Its value is 1.33*.

What about the “Carboxyethyl-GABA, CSF, ratio relative to baseline” value ([3]; 24 h post-dose) of the same compound?
Its value is 1.24*.

And the “Homovanillate (HVA), CSF, ratio relative to baseline” value ([3]; 24 h post-dose)?
The value was 1.34*.

And the “Hydroxyindoleacetic acid (HIAA), CSF, ratio relative to baseline” value ([3]; 24 h post-dose)?
The value was 1.21*.

And the “1-methyl-4-imidazoleacetate, CSF, ratio relative to baseline” value ([3]; 36 h post-dose)?
The value was 1.75*.

What about the “Carboxyethyl-GABA, CSF, ratio relative to baseline” value ([3]; 36 h post-dose) of the same compound?
Its value is 1.22*.

And the “Homovanillate (HVA), CSF, ratio relative to baseline” value ([3]; 36 h post-dose)?
The value was 1.41*.

What about the “Hydroxyindoleacetic acid (HIAA), CSF, ratio relative to baseline” value ([3]; 36 h post-dose) of the same compound?
The value was 1.28*.

What about the “time to EEG activation after the first and second doses” value ([4]; 2400 mg Day 1 and Day 3) of the same compound?
The value was no more than 1 h.

And the “ASSR high-frequency (harmonic) resonances” value [4, 5]?
Its value is “increased”.

And the “peak latency of N100, P200, P300A components in auditory oddball tasks” value [4, 5]?
Its value is “reduced”.

What about the “changes in low- and high-frequency EEG bands” value ([4]; 2400 mg, qEEG) of the same compound?
Its value is “dose-dependent decreases in low-frequency EEG bands (delta, theta) and increases in high-frequency EEG bands (gamma)”.

What about the “delta and theta band amplitudes” value ([4]; 2400 mg, qEEG) of the same compound?
The value was “significantly decreased”.

What about the “high-frequency band amplitudes (higher beta and gamma bands)” value ([4]; 2400 mg, qEEG) of the same compound?
Its value is “increased”.

And the qEEG band coherences ([4]; 2400 mg, qEEG)?
Its qEEG band coherences is “increased coherence in alpha, beta, and gamma bands”.

And the theta-beta ratios ([4]; 2400 mg, qEEG)?
Its theta-beta ratios is “decreased”.

What about the alpha band amplitudes ([4]; 2400 mg, qEEG, within 1 hour after dosing) of the same compound?
The alpha band amplitudes was “decreased”.

What about the “neural activation on qEEG” value ([4]; single dose 2400 mg, versus placebo) of the same compound?
Its value is “rapid and significant neural activation”.
